Experimental data reported in the supplement of paper PMC11208160.

Assay: recombinant UMI read abundance after kanamycin selection (control-corrected) (log10(CPM+1)); higher = more efficient recombination; extreme values may be limits of the assay; sequences stand for … in AGTGCAGAGAAAATCGGCCAGTTTTCTCTGCCTGCAGTCCGCATGCCGTGGGACCCCTTGGGTTCTAACCTGTTGCCTAGATTTATGCAGCGGACTGCCTTTCTCCCAAAGTGATAAACCGG…AGGTTGGTTTCACT; site = the 11-nt donor
Outline: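 After plating on IPTG (0.07 mM) plus kanamycin, or unselected, in two replicates, recombinant UMIs were PCR-amplified across the donor–target junction and sequenced. The cells were Escherichia coli co-electroporated with a UMI-tagged donor and donor-binding-loop pair library and a target plasmid with a fixed target and T7-inducible IS621 bridge recombinase. Values are log10(CPM+1), with CPM averaged over replicates and scaled by control-derived factors.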
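Further: IS621 bridge recombinase in Escherichia coli cells against a fixed T5 target plasmid.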

Sequence	recombinant UMI read abundance (log10)
CGAAATCCATGGACCGGTTTTCCCGGTAATCCGTATTTGTT (site CGCAATCCTAA)	0
CGAAATCCATGGACCGGTTTTCCCGGTAATCCGTATTTGTT (site CGGAATCCTAA)	0
CGAAATCCATGGACCGGTTTTCCCGGTAATCCGTATTTGTT (site CGTAATCCTAA)	0
CGAAATTCATGGACCGGTTTTCCCGGTAATCCGTATTTGTT (site CGAAATTCTAA)	0.945
CGAAATTCATGGACCGGTTTTCCCGGTAATCCGTATTTGTT (site CGGAATCCTAA)	0
CGAACACCATGGACCGGTTTTCCCGGTAATCCGTATTTGCT (site CGAACACCTAG)	0
CGAACACCATGGACCGGTTTTCCCGGTAATCCGTATTTGCT (site CGATCATCTAG)	0
CGAACGTCATGGACCGGTTTTCCCGGTAATCCGTATTTGCT (site CGAACGTCTAG)	2.87
CGAACGTCATGGACCGGTTTTCCCGGTAATCCGTATTTGCT (site CGATCATCTAG)	0
CGAAGAGCATGGACCGGTTTTCCCGGTAATCCGTATTTGAC (site CGAAGAGCTGT)	2.51
CGAAGGGCATGGACCGGTTTTCCCGGTAATCCGTATTTGGT (site CGAAGGGCTAC)	1.32
CGAAGTACATGGACCGGTTTTCCCGGTAATCCGTATTTGCG (site CGAAGTACTCG)	2.12
CGAATACCATGGACCGGTTTTCCCGGTAATCCGTATTTGTA (site CGAATACCTTA)	0
CGAATATCATGGACCGGTTTTCCCGGTAATCCGTATTTGCG (site CGAATATCTCG)	2.99
CGAATCGCATGGACCGGTTTTCCCGGTAATCCGTATTTGAT (site CGAATCGCTAT)	2.72
CGAATGGCATGGACCGGTTTTCCCGGTAATCCGTATTTGCG (site GAGGGCACTAT)	0.0326

Sequence	recombinant UMI read abundance (log10)
CGACCAACATGGACCGGTTTTCCCGGTAATCCGTATTTGCT (site CGACCAACTAG)	2.28
CGACCAACATGGACCGGTTTTCCCGGTAATCCGTATTTGCT (site CGATCATCTAG)	0
CGACCCGCATGGACCGGTTTTCCCGGTAATCCGTATTTGCG (site CGACCCGCTCG)	0.0234
CGACGACCATGGACCGGTTTTCCCGGTAATCCGTATTTGAA (site CGACGACCTTT)	0.00772
CGACGGTCATGGACCGGTTTTCCCGGTAATCCGTATTTGCC (site TATGCCGCTAT)	0
CGACTAACATGGACCGGTTTTCCCGGTAATCCGTATTTGGA (site CAACTAACTTC)	1.44
CGACTAACATGGACCGGTTTTCCCGGTAATCCGTATTTGGA (site CCACTAACTTC)	0.226
CGACTAACATGGACCGGTTTTCCCGGTAATCCGTATTTGGA (site CGACTAACTTC)	1.74
CGACTAACATGGACCGGTTTTCCCGGTAATCCGTATTTGGA (site CTACTAACTTC)	0.554
CGAGAACCATGGACCGGTTTTCCCGGTAATCCGTATTTGGG (site CGAGAACCTCC)	0
CGAGAACCATGGACCGGTTTTCCCGGTAATCCGTATTTGGG (site CGAGCACCTCC)	0.00673
CGAGAACCATGGACCGGTTTTCCCGGTAATCCGTATTTGGG (site CGAGGACCTCC)	0.0198
CGAGAACCATGGACCGGTTTTCCCGGTAATCCGTATTTGGG (site CGAGTACCTCC)	0.00635
CGAGAAGCATGGACCGGTTTTCCCGGTAATCCGTATTTGCT (site CGAGAAGCTAG)	2.17
CGAGAAGCATGGACCGGTTTTCCCGGTAATCCGTATTTGTC (site CGAGAAGCTGA)	2.25
CGAGAGTCATGGACCGGTTTTCCCGGTAATCCGTATTTGCC (site CGAGAGTCTGG)	3.37
